According to PMC6272887, “Discovery of Potent c-MET Inhibitors with New Scaffold Having Different Quinazoline, Pyridine and Tetrahydro-Pyridothienopyrimidine Headgroups” (Molecules, 2016):

Tests used:
c-MET [1] = biological target: T1, c-MET (Homo sapiens, UniProt P08581); assay: In vitro kinase assay (HTScan MET Kinase Assay Kit, colorimetric ELISA); type: biochemical; conditions: ATP 10 µM; three independent determinations; read-out: Enzymatic Inhibition (IC50, µM) c-MET
T1 construct: purchased Cell Signaling Technology, Inc
T1 sequence (P08581 25-1390): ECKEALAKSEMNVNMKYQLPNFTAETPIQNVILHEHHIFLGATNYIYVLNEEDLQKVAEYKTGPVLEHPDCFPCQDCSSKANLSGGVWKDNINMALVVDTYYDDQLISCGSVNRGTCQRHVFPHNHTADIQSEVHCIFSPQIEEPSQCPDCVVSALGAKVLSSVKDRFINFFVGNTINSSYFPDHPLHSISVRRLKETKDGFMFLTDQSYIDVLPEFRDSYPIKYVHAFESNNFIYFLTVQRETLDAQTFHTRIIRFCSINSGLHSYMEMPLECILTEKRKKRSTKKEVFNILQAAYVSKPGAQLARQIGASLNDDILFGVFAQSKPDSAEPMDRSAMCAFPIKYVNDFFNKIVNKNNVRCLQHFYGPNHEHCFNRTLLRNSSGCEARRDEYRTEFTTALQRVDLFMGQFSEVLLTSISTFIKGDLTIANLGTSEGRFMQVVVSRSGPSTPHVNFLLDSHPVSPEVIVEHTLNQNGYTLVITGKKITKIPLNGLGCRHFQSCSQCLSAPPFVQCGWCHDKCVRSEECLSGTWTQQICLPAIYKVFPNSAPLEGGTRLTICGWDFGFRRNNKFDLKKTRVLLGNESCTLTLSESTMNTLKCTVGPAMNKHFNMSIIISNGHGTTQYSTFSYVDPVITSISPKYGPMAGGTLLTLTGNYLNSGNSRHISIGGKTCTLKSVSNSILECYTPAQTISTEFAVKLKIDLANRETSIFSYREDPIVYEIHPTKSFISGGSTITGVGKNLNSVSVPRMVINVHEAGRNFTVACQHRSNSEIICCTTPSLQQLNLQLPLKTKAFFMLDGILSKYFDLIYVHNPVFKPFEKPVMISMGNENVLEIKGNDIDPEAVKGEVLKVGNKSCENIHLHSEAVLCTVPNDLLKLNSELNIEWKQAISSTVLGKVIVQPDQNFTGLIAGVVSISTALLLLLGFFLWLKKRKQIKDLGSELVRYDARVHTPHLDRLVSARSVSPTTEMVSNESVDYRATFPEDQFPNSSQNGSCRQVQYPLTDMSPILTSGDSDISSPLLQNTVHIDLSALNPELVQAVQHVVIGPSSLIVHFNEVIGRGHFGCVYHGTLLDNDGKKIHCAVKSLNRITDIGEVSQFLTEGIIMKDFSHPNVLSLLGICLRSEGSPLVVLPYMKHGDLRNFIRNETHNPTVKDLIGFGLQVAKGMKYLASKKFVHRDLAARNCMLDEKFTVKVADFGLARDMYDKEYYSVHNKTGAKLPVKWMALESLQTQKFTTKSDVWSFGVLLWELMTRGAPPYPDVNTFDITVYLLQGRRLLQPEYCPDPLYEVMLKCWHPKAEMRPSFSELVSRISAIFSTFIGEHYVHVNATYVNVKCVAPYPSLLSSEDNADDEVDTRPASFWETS
Method: (§1) In vitro kinase inhibitory ability was determined using HTScan MET Kinase Assay Kit, HTScan VEGF Receptor 2 Kinase Assay Kit, HTScan c-Kit Kinase Assay Kit, HTScan PDGF Receptor β Kinase Assay Kit and HTScan EGFR Kinase Assay Kit(purchased from Cell Signaling Technology, Inc. Danvers, MA, USA) by colorimetric ELISA assay according to the manufacturer’s instructions. Briefly, reaction cocktail containing recombinant human MET kinase or other kinases were incubated with various concentrations of tested compounds or DMSO (0.1%) for 5 min at room temperature, and then ATP/substrate peptide cocktail was added to the pre-incubated reaction cocktail. After incubation at room temperature for 30 min, the reaction was stopped and transferred to a 96-wellstreptavidin-coated plate, and incubated for 1 h at room temperature. Primary antibody (phosphorylated tyrosine monoclonal antibody (pTyr-100), 1:1000 in PBS/T with 1% bovine serum albumin (BSA)) was added into per well until the wells were washed thrice with PBS/T. After incubated at room temperature for 1 h, phosphorylation of the substrate was monitored with HRP-labeled anti-mouse IgG antibody (1:500 in PBS/T with 1% BSA), followed by a chromogenic reaction. Finally, the kinase assay was detected at 450 nm with microplate reader. The reaction processed with only DMSO (0.1%) served as a vehicle control. […] The kinase assay was performed thrice independently.

[2] = system: HeLa (human cervical carcinoma); assay: Cell proliferative assay (MTT), HeLa; type: cell-based; conditions: Homo sapiens, HeLa, HeLa cells, read-out: Proliferative Inhibition (IC50, µM) HeLa
Method: (§2) The anti-proliferative activities of synthesized compounds against HeLa, Hep-G2 and MCF-7 cells were evaluated by MTT assay. HeLa cells were grown to log phase in RPMI 1640 medium supplemented with 10% fetal bovine serum. Hep-G2 and MCF-7 cells were grown to log phase in DMEM medium supplemented with 10% fetal bovine serum. After diluting to […] with the complete medium, 100 µL of the obtained cell suspension was added to each well of 96-well culture plates. The subsequent incubation was permitted at 37 °C, 5% CO2 atmosphere for 48 h before the anti-proliferative assessments. Tested samples at pre-set concentrations were added to 6 wells. Before the anti-proliferative assessments, 20 µL of PBS containing 2.5 mg∙mL^−1 of MTT was added to each well. Four h later, 100 µL extraction solution (DMSO) was added to each well and the optical density was measured at a wavelength of 570 nm on an ELISA microplate reader.

[3] = system: Hep-G2 (human liver cancer); assay: Cell proliferative assay (MTT), Hep-G2; type: cell-based; conditions: Homo sapiens, HepG2, Hep-G2 cells, read-out: Proliferative Inhibition (IC50, µM) Hep-G2
Method: as §2

[4] = system: MCF-7 (human breast cancer); assay: Cell proliferative assay (MTT), MCF-7; type: cell-based; conditions: Homo sapiens, MCF7, MTT assay, MCF-7 cells; read-out: Proliferative Inhibition (IC50, µM) MCF-7
Method: as §2

VEGFR-2 = biological target: T2, VEGFR-2 (Homo sapiens, UniProt P35968); assay: In vitro kinase assay (HTScan VEGF Receptor 2 Kinase Assay Kit); type: biochemical; conditions: ATP 10 µM; read-out: Enzyme, IC50, µM VEGFR-2
T2 construct: purchased Cell Signaling Technology, Inc
Method: In vitro kinase inhibitory ability was determined using HTScan MET Kinase Assay Kit, HTScan VEGF Receptor 2 Kinase Assay Kit, HTScan c-Kit Kinase Assay Kit, HTScan PDGF Receptor β Kinase Assay Kit and HTScan EGFR Kinase Assay Kit(purchased from Cell Signaling Technology, Inc. Danvers, MA, USA) by colorimetric ELISA assay according to the manufacturer’s instructions. Briefly, reaction cocktail containing recombinant human MET kinase or other kinases were incubated with various concentrations of tested compounds or DMSO (0.1%) for 5 min at room temperature, and then ATP/substrate peptide cocktail was added to the pre-incubated reaction cocktail. After incubation at room temperature for 30 min, the reaction was stopped and transferred to a 96-wellstreptavidin-coated plate, and incubated for 1 h at room temperature. Primary antibody (phosphorylated tyrosine monoclonal antibody (pTyr-100), 1:1000 in PBS/T with 1% bovine serum albumin (BSA)) was added into per well until the wells were washed thrice with PBS/T. After incubated at room temperature for 1 h, phosphorylation of the substrate was monitored with HRP-labeled anti-mouse IgG antibody (1:500 in PBS/T with 1% BSA), followed by a chromogenic reaction. Finally, the kinase assay was detected at 450 nm with microplate reader. The reaction processed with only DMSO (0.1%) served as a vehicle control. […]

c-Kit = biological target: T3, c-Kit (Homo sapiens, UniProt P10721); assay: In vitro kinase assay (HTScan c-Kit Kinase Assay Kit); type: biochemical; conditions: for IC50: ATP 10 µM, read-out: Enzyme, IC50, µM c-Kit; for selectivity against c-Kit: relative to c-MET
T3 construct: purchased Cell Signaling Technology, Inc
T3 sequence (P10721 26-976): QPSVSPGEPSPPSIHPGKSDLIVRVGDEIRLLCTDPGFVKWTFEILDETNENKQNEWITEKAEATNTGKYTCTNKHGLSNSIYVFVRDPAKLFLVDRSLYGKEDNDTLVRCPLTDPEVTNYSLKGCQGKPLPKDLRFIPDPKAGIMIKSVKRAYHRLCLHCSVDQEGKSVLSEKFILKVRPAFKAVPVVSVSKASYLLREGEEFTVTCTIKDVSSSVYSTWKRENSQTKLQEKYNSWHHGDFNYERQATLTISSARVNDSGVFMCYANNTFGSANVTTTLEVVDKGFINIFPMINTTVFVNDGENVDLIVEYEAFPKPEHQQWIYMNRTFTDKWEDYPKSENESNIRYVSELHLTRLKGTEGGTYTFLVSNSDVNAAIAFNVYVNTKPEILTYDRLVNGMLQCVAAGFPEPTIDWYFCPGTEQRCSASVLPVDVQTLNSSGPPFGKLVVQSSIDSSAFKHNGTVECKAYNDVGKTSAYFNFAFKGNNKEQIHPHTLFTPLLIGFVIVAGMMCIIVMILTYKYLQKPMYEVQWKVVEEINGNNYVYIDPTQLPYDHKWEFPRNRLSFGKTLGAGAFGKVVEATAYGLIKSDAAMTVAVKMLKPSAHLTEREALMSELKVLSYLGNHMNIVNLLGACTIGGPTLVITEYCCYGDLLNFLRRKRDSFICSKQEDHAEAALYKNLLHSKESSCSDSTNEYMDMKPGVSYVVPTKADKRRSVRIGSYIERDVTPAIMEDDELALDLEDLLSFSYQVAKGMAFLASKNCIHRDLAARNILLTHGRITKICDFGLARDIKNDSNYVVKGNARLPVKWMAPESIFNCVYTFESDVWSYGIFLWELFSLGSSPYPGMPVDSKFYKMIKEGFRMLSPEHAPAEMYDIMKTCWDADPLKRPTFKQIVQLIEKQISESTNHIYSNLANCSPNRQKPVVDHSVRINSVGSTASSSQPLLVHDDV
Method: as §1

PDGFR-b = biological target: T4, PDGFR-b (Homo sapiens, UniProt P09619); assay: In vitro kinase assay (HTScan PDGF Receptor β Kinase Assay Kit); type: biochemical; conditions: for IC50: ATP 10 µM, read-out: Enzyme, IC50, µM PDGFR-b; for selectivity against PDGFR-b: relative to c-MET
T4 construct: purchased Cell Signaling Technology, Inc
T4 sequence (P09619 33-1106): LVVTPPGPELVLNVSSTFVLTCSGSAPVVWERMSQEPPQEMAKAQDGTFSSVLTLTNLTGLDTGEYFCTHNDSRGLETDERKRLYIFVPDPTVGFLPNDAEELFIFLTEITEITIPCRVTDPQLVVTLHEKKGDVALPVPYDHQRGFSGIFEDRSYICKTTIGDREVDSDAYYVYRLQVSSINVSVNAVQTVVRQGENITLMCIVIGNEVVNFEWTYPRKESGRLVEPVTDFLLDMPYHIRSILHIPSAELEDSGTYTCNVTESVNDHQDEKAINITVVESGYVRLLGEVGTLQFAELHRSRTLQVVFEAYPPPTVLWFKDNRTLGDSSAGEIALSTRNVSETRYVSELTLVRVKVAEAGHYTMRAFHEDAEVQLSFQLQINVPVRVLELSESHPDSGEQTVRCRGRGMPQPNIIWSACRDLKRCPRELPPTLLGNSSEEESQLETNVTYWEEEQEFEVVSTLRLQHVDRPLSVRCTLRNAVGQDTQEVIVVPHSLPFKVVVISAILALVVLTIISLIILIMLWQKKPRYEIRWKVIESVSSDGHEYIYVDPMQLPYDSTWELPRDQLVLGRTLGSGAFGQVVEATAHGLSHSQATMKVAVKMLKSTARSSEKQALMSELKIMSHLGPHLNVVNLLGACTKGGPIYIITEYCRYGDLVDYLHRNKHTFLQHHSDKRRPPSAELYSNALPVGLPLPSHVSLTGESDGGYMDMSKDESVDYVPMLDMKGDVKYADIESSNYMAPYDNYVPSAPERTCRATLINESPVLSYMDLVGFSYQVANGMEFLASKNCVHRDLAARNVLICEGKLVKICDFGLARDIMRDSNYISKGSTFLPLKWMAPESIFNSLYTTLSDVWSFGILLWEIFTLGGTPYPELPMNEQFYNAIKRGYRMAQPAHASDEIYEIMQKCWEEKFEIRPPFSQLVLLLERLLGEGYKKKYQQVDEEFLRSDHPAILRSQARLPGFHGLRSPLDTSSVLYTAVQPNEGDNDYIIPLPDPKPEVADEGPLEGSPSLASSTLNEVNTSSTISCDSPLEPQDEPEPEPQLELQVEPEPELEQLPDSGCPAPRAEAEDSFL
Method: as §1

EGFR = biological target: T5, EGFR (Homo sapiens, UniProt P00533); assay: In vitro kinase assay (HTScan EGFR Kinase Assay Kit); type: biochemical; conditions: for IC50: ATP 10 µM, read-out: Enzyme, IC50, µM EGFR; for selectivity against EGFR: relative to c-MET
T5 construct: purchased Cell Signaling Technology, Inc
T5 sequence (P00533 25-1210): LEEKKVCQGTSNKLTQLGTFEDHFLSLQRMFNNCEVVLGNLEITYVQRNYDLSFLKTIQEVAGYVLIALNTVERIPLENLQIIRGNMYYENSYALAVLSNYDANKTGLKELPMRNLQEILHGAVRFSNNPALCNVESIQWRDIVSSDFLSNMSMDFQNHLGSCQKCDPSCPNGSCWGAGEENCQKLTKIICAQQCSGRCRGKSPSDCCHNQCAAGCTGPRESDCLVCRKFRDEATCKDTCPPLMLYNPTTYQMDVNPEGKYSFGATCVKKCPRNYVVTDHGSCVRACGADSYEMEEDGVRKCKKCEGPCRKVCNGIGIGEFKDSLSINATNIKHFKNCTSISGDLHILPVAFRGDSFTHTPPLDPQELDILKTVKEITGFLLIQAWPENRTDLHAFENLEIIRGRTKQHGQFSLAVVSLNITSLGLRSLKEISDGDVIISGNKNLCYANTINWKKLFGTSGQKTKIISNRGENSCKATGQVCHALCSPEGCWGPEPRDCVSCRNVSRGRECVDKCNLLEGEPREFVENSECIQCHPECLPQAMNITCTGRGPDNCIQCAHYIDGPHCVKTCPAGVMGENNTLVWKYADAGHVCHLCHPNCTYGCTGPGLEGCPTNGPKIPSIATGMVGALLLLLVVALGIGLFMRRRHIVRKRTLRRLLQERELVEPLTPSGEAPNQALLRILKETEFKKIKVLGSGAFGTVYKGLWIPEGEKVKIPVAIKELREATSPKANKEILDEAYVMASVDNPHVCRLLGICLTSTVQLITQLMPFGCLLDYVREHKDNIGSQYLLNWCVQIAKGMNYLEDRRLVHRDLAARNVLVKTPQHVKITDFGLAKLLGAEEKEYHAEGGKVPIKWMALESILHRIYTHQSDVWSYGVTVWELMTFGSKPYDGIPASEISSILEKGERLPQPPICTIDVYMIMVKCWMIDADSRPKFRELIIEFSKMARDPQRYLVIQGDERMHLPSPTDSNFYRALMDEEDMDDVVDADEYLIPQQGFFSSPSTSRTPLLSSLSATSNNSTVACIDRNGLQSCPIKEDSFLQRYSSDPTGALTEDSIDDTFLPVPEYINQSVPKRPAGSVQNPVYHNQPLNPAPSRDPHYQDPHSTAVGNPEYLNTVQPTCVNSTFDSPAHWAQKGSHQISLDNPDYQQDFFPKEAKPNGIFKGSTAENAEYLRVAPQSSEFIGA
Method: as §1

c-MET [5] = system: c-MET; design: method as in PMID 19896842, PMID 24485123, PMID 23041435; conditions: cell-free assays; cited from earlier work

| SMILES | IC50 (c-MET [1]) [µM] | IC50 [2] [µM] | IC50 [3] [µM] | IC50 [4] [µM] | IC50 (VEGFR-2) [µM] | IC50 (c-Kit) [µM] | selectivity against c-Kit (c-Kit) [fold] | IC50 (PDGFR-b) [µM] | selectivity against PDGFR-b (PDGFR-b) [fold] | IC50 (EGFR) [µM] | selectivity against EGFR (EGFR) [fold] | melting point [°C] | IC50 (c-MET [5]) [µM] |
| --- | --- | --- | --- | --- | --- | --- | --- | --- | --- | --- | --- | --- | --- |
| CC(C)(C)OC(=O)N1CCc2c(sc3ncnc(Oc4ccc(NC(=O)C5(C(=O)Nc6ccc(F)cc6)CC5)cc4F)c23)C1 [Compound 13h, tert-butyl-4-{2-fluoro-4-(1-((4-fluorophenyl)carbamoyl)cyclopropanecarboxamido)phenoxy}-5,6-dihydropyrido(4’,3’:4,5)thieno(2,3-d)pyrimidine-7(8H)-carboxylate] | 0.05 ± 0.01 | 4.6 ± 0.03 | 1.7 ± 0.04 | 2.8 ± 0.23 | 0.25 ± 0.02 | 5.2 ± 0.09 | 104 | 7.2 ± 0.1 | 144 | > 10 | > 200 | 171 to 173 | – |
| COc1cc2nccc(Oc3ccc(NC(=O)C4(C(=O)Nc5ccc(F)cc5)CC4)cc3)c2cc1OC [XL184, Cabozantinib, reference compound] | – | – | 49.1 ± 0.25 | – | – | – | – | – | – | – | – | – | 0.0013 |
| COc1cc2ncnc(Oc3ccc(NC(=O)C4(C(=O)Nc5ccc(F)cc5)CC4)cc3F)c2cc1OC [Compound 13b] | 0.02 | 4.7 ± 0.11 | 12.8 ± 0.28 | 1.2 ± 0.21 | 0.1 ± 0.02 | 4.3 ± 0.11 | 215 | > 10 | > 500 | > 10 | > 500 | 180 to 182 | – |
